# Test results taken from the supplement of paper PMC10307832.
# How the values were obtained:
# Assay in all cases: relative viability (nuclei count vs DMSO), 5 days (fraction); higher = more cells survive
# GSK-J4 + Trametinib = compound: CCOC(=O)CCNc1cc(N2CCc3ccccc3CC2)nc(-c2ccccn2)n1 [GSK-J4] + CC(=O)Nc1cccc(-n2c(=O)n(C3CC3)c(=O)c3c(Nc4ccc(I)cc4F)n(C)c(=O)c(C)c32)c1 [Trametinib] (partner 0.02 µM)
# Outline: (§1)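 For relative viability, nuclei counts in treated wells were divided by those in vehicle wells. Lung cancer cell lines had been pin-tool dosed in 1536-well plates the day after seeding and cultured for 5 days, then fixed and stained in one step (final 0.05% Triton X-100, 1% formaldehyde, 1 ug/ml Hoechst) and imaged at 4×. Doses were one drug alone or a fixed anchor-drug dose plus five library-drug doses (not always all listed) in √10 steps, and values are duplicate-plate medians.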
# GSK-J4 + Palbociclib = compound: CCOC(=O)CCNc1cc(N2CCc3ccccc3CC2)nc(-c2ccccn2)n1 [GSK-J4] + CC(=O)c1c(C)c2cnc(Nc3ccc(N4CCNCC4)cn3)nc2n(C2CCCC2)c1=O [Palbociclib] (partner 0.5 µM)
# Outline: as §1
# GSK-J4 + Navitoclax = compound: CCOC(=O)CCNc1cc(N2CCc3ccccc3CC2)nc(-c2ccccn2)n1 [GSK-J4] + CC1(C)CCC(c2ccc(Cl)cc2)=C(CN2CCN(c3ccc(C(=O)NS(=O)(=O)c4ccc(N[C@H](CCN5CCOCC5)CSc5ccccc5)c(S(=O)(=O)C(F)(F)F)c4)cc3)CC2)C1 [Navitoclax] (partner 0.5 µM)
# Outline: as §1
# GSK-J4 + Linsitinib = compound: CCOC(=O)CCNc1cc(N2CCc3ccccc3CC2)nc(-c2ccccn2)n1 [GSK-J4] + C[C@]1(O)C[C@@H](c2nc(-c3ccc4ccc(-c5ccccc5)nc4c3)c3c(N)nccn32)C1 [Linsitinib] (partner 1 µM)
# Outline: as §1
Cell Line,relative viability (GSK-J4 + Trametinib; first compound 0.5 µM),relative viability (GSK-J4 + Trametinib; first compound 1.581 µM),relative viability (GSK-J4 + Trametinib; first compound 5 µM),relative viability (GSK-J4 + Trametinib; first compound 15.81 µM),relative viability (GSK-J4 + Trametinib; first compound 50 µM),relative viability (GSK-J4 + Palbociclib; first compound 0.5 µM),relative viability (GSK-J4 + Palbociclib; first compound 1.581 µM),relative viability (GSK-J4 + Palbociclib; first compound 5 µM),relative viability (GSK-J4 + Palbociclib; first compound 15.81 µM),relative viability (GSK-J4 + Palbociclib; first compound 50 µM),relative viability (GSK-J4 + Navitoclax; first compound 0.5 µM),relative viability (GSK-J4 + Navitoclax; first compound 1.581 µM),relative viability (GSK-J4 + Navitoclax; first compound 5 µM),relative viability (GSK-J4 + Navitoclax; first compound 15.81 µM),relative viability (GSK-J4 + Navitoclax; first compound 50 µM),relative viability (GSK-J4 + Linsitinib; first compound 0.5 µM),relative viability (GSK-J4 + Linsitinib; first compound 1.581 µM),relative viability (GSK-J4 + Linsitinib; first compound 5 µM),relative viability (GSK-J4 + Linsitinib; first compound 15.81 µM),relative viability (GSK-J4 + Linsitinib; first compound 50 µM)
LXF-289,0.696,0.592,0.688,0.654,0.584,0.588,0.546,0.58,0.555,0.533,0.864,0.838,0.955,0.933,0.867,0.973,0.912,0.956,0.915,0.893
NCI-H23,0.354,0.367,0.393,0.285,0.34,0.483,0.398,0.48,0.375,0.42,0.856,–,0.886,0.893,0.867,0.557,–,0.694,0.54,0.594
NCI-H322M,0.513,0.482,0.623,0.457,0.503,0.493,0.446,0.497,0.435,0.538,1.18,1.18,1.29,1.05,1.17,0.858,0.929,0.955,0.828,0.825
NCI-H441,0.498,0.386,0.492,0.383,0.352,0.235,0.202,0.241,0.221,0.161,0.818,0.362,0.508,0.667,0.535,0.664,0.325,0.602,0.532,0.511
NCI-H460,0.258,–,0.143,0.0717,0.0851,0.175,–,0.167,0.137,0.149,1.02,0.984,1.09,1.22,0.994,0.821,0.584,0.836,0.691,0.581
NCI-H520,0.625,0.486,0.577,0.559,0.472,0.231,0.113,0.223,0.167,0.163,1.07,0.957,1.21,0.694,1.06,0.829,0.939,1.15,0.891,0.81
NCI-H647,0.521,0.393,0.357,0.445,0.499,0.404,0.348,0.358,0.411,0.471,1.02,0.737,0.981,1.06,1.09,0.964,0.993,1.03,1.2,0.79
NCI-H727,0.405,0.393,0.378,0.385,0.331,0.648,0.683,0.696,0.593,0.528,0.394,–,0.648,0.404,0.208,0.245,–,0.568,0.267,0.222
NCI-H838,0.566,0.455,0.223,0.436,0.332,0.222,0.204,0.158,0.194,0.226,1.13,1.07,–,1.08,1.14,0.973,0.982,–,0.999,1
NCI-H1355,0.371,0.4,0.486,0.396,0.327,0.372,0.375,0.415,0.35,0.356,0.913,0.793,1.18,0.815,0.924,0.714,0.742,0.871,0.809,0.816
NCI-H1395,1.04,0.919,1.02,0.806,0.854,0.546,0.518,0.576,0.556,0.61,1.31,1.08,0.896,1.05,0.898,1.06,1.22,0.877,0.813,0.745
NCI-H1437,0.478,0.444,0.553,0.491,0.29,0.293,0.278,0.332,0.38,0.205,1.03,1.03,1.03,1.08,0.319,0.928,0.993,0.988,0.881,0.222
NCI-H1651,0.761,0.785,0.898,0.79,0.772,0.502,0.47,0.504,0.504,0.509,0.999,0.942,1.03,1.05,0.958,0.959,0.878,1.05,0.9,0.939
NCI-H1666,0.843,0.695,0.923,0.704,0.77,0.685,0.561,0.59,0.627,0.708,1.08,–,1.19,0.918,0.472,0.873,–,0.888,0.779,0.764
NCI-H1734,0.633,0.524,0.627,0.58,0.545,0.332,0.318,0.346,0.335,0.281,0.83,0.736,0.694,0.734,0.632,0.884,0.72,0.818,0.757,0.816
NCI-H1755,0.809,0.72,0.754,0.649,0.65,0.43,0.336,0.456,0.447,0.408,0.978,0.888,0.975,0.955,0.96,0.958,0.561,0.962,0.858,0.959
